From paper PMC10978946, “Coumarin linked to 2-phenylbenzimidazole derivatives as potent α-glucosidase inhibitors” (Scientific Reports, 2024)
Read-outs that look alike come from different tables or passages of the source.

Key:
[1] = target: T1, α-Glucosidase (Saccharomyces cerevisiae, EC3.2.1.20) (Saccharomyces cerevisiae, UniProt P53341); test: biochemical; assay type: biochemical
T1 construct: purchased Sigma-Aldrich
Procedure: α-Glucosidase (Saccharomyces cerevisiae, EC3.2.1.20, 20 U/mg) and the substrate, […] (p-NPG) were purchased from Sigma-Aldrich, and the assay was performed exactly according to our previous report[34],[35].

α-glucosidase [2] = target: T2, α-glucosidase (Saccharomyces cerevisiae, UniProt P53341); test: Enzyme kinetic studies (Lineweaver–Burk plot, secondary plot); assay type: biochemical
T2 construct: purchased Sigma-Aldrich
Procedure: A Lineweaver–Burk plot was generated to identify the type of inhibition and Km value was determined from the plot between the reciprocal of the substrate concentration (1/[S]) and reciprocal of enzyme rate (1/V) over various inhibitor concentrations. Experimental Ki value was constructed by secondary plots of the inhibitor concentration [I] versus Km.

α-glucosidase [3] = conditions: cited from earlier work; for fold more potent than acarbose: literature coumarin derivatives versus acarbose
yeast α-glucosidase = target: yeast α-glucosidase; design: method as in PMID 26637946; conditions: compound D and its acarbose control; cited from earlier work
[4] = supplement sheet IC50 values, unrounded, unit inferred

T2 sequence (P53341 whole entry): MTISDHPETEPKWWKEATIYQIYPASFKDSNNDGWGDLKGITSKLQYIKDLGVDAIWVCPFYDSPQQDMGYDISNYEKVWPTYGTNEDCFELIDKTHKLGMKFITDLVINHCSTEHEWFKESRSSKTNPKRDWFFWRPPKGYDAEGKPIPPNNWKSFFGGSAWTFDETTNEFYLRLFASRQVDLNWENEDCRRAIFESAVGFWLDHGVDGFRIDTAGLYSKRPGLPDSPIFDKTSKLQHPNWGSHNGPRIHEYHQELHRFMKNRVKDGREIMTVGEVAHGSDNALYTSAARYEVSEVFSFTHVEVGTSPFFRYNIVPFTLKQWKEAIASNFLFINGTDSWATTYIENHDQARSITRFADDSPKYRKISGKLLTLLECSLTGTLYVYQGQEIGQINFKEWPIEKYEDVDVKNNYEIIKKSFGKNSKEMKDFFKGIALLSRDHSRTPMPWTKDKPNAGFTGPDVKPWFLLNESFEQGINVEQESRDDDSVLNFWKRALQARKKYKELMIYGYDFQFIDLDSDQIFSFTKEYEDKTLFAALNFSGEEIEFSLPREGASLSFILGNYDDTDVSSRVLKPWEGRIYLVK
T1 sequence (P53341 whole entry): as above

Row | Structure (SMILES) | IC50 [1] [µM] | IC50 [1, 4] [µM] | melting point [°C] | further results
1 | O=C(Oc1ccc2ccc(=O)oc2c1)c1ccc2[nH]c(-c3ccccc3)nc2c1 [Compound 5a, 2-Oxo-2H-chromen-7-yl 2-phenyl-1H-benzo[d]imidazole-5-carboxylate] | 50 ± 0.8 | 50 | 180 to 183 | fold better than acarbose ([1]; ratio of IC50 values versus acarbose): approximately 15 fold
2 | O=C(Oc1ccc2ccc(=O)oc2c1)c1ccc2[nH]c(-c3ccc(F)cc3)nc2c1 [Compound 5b, 2-Oxo-2H-chromen-7-yl 2-(4-fluorophenyl)-1H-benzo[d]imidazole-5-carboxylate] | 30.6 ± 0.4 | 30.6 | 195 to 197 | –
3 | O=C(Oc1ccc2ccc(=O)oc2c1)c1ccc2[nH]c(-c3ccc(Cl)cc3)nc2c1 [Compound 5c, 2-Oxo-2H-chromen-7-yl 2-(4-chlorophenyl)-1H-benzo[d]imidazole-5-carboxylate] | 26.9 ± 1.1 | 26.9 | 180 to 182 | –
4 | O=C(Oc1ccc2ccc(=O)oc2c1)c1ccc2[nH]c(-c3ccc(Br)cc3)nc2c1 [Compound 5d, 2-Oxo-2H-chromen-7-yl 2-(4-bromophenyl)-1H-benzo[d]imidazole-5-carboxylate] | 22.9 ± 0.2 | 23 | 179 to 181 | –
5 | O=C(Oc1ccc2ccc(=O)oc2c1)c1ccc2[nH]c(-c3ccccc3Cl)nc2c1 [Compound 5e, 2-Oxo-2H-chromen-7-yl 2-(2-chlorophenyl)-1H-benzo[d]imidazole-5-carboxylate] | 34.7 ± 0.7 | 34.7 | 189 to 191 | –
6 | O=C(Oc1ccc2ccc(=O)oc2c1)c1ccc2[nH]c(-c3cccc(Br)c3)nc2c1 [Compound 5f, 2-Oxo-2H-chromen-7-yl 2-(3-bromophenyl)-1H-benzo[d]imidazole-5-carboxylate] | 25.2 ± 0.5 | 25.2 | 172 to 174 | –
7 | O=C(Oc1ccc2ccc(=O)oc2c1)c1ccc2[nH]c(-c3ccc(F)cc3F)nc2c1 [Compound 5g, 2-Oxo-2H-chromen-7-yl 2-(2,4-difluorophenyl)-1H-benzo[d]imidazole-5-carboxylate] | 46.7 ± 0.2 | 46.7 | 201 to 203 | –
8 | O=C(Oc1ccc2ccc(=O)oc2c1)c1ccc2[nH]c(-c3cccc(Cl)c3Cl)nc2c1 [Compound 5h, 2-Oxo-2H-chromen-7-yl 2-(2,3-dichlorophenyl)-1H-benzo[d]imidazole-5-carboxylate] | 45.2 ± 0.2 | 45.3 | 182 to 184 | –
9 | Cc1ccc(-c2nc3cc(C(=O)Oc4ccc5ccc(=O)oc5c4)ccc3[nH]2)cc1 [Compound 5i, 2-Oxo-2H-chromen-7-yl 2-(p-tolyl)-1H-benzo[d]imidazole-5-carboxylate] | 44.9 | 44.9 | 193 to 195 | –
10 | COc1ccc(-c2nc3cc(C(=O)Oc4ccc5ccc(=O)oc5c4)ccc3[nH]2)cc1 [Compound 5j, 2-Oxo-2H-chromen-7-yl 2-(4-methoxyphenyl)-1H-benzo[d]imidazole-5-carboxylate] | 40.3 ± 0.5 | – | 169 to 171 | –
11 | O=C(Oc1ccc2ccc(=O)oc2c1)c1ccc2[nH]c(-c3ccccc3O)nc2c1 [Compound 5k, 2-Oxo-2H-chromen-7-yl 2-(2-hydroxyphenyl)-1H-benzo[d]imidazole-5-carboxylate] | 10.8 ± 0.1 | – | 187 to 189 | fold more potent than compound 5d ([1]; IC50 comparison 5k versus 5d): twofold; inhibition pattern (α-glucosidase [2]; Lineweaver–Burk plot, Km increased, Vmax unchanged): competitive inhibition pattern; Ki (α-glucosidase [2]; from plot of Km versus inhibitor concentration, substrate p-nitrophenyl α-D-glucopyranoside 1–16 mM, read-out: inhibition constant (Ki)): 10.4 µM
12 | Cc1c(-c2nc3cc(C(=O)Oc4ccc5ccc(=O)oc5c4)ccc3[nH]2)cccc1[N+](=O)[O-] [Compound 5l, 2-Oxo-2H-chromen-7-yl 2-(2-methyl-3-nitrophenyl)-1H-benzo[d]imidazole-5-carboxylate] | 119.5 ± 0.1 | 119 | 194 to 196 | fold decrease of inhibitory activity versus compound 5m ([1]; 3-chloro replaced with 3-nitro): three folds
13 | Cc1c(Cl)cccc1-c1nc2cc(C(=O)Oc3ccc4ccc(=O)oc4c3)ccc2[nH]1 [Compound 5m, 2-Oxo-2H-chromen-7-yl 2-(3-chloro-2-methylphenyl)-1H-benzo[d]imidazole-5-carboxylate] | 40.9 ± 1.1 | 40.9 | 182 to 184 | –
14 | O=C(N/N=C/c1ccccc1O)c1cc2ccccc2oc1=O [Compound A] | – | – | – | IC50 (α-glucosidase [3]; Fig. 1, compound A and its acarbose control): 1.1 µM; fold more potent than acarbose (α-glucosidase [3]): 35.8 fold
15 | Cc1ccc(/C=C/C(=O)Oc2cc(=O)oc3ccccc23)cc1 [Compound B] | – | – | – | IC50 (α-glucosidase [3]; Fig. 1, compound B and its ursolic acid control): 13 µM
16 | C/C(=N\OC(=O)/C=C/c1ccc(Br)cc1)c1cc2ccc(Br)cc2oc1=O [Compound C] | – | – | – | IC50 (α-glucosidase [3]; Fig. 1, compound C and its acarbose control): 2.54 µM; fold more potent than acarbose (α-glucosidase [3]): 252 fold
17 | Cc1cc2nc(-c3ccc(C(=O)N/N=C/c4cc(O)c(O)c(O)c4)cc3)[nH]c2cc1C [Compound D] | – | – | – | IC50 (yeast α-glucosidase): 8.4 µM
18 | COc1ccc(-c2nc3cc(C(=O)N/N=C/c4cccs4)ccc3[nH]2)cc1 [Compound E] | – | – | – | IC50 (α-glucosidase [3]; Fig. 1, compound E and its acarbose control): 60.1 µM
19 | COc1cc(-c2nc3ccccc3[nH]2)ccc1OCC(=O)Nc1ccc(F)cc1 [Compound F] | – | – | – | IC50 (α-glucosidase [3]; Fig. 1, compound F and its acarbose control): 99.6 µM
